Values of other authors as cited in patent US9149436B2, “Pharmaceutical product comprising a sequestered agent” (Purdue Pharma L.P., priority 2003, dated 2015).

Conditions: after oral doses

C[C@H]1[C@H]2Cc3ccc(O)cc3[C@]1(C)CCN2CC1CC1 [cyclazocine]
duration of action: ~24 h

O=C1CC[C@@]2(O)[C@H]3Cc4ccc(O)c5c4[C@@]2(CCN3CC2CC2)[C@H]1O5 [naltrexone]
duration of action: ~24 h
